Results reported in patent publication US9730931B2, “Pyrimidine FGFR4 inhibitors” (priority 2013, dated 2017).
Where two headings read alike, the source gives them in different places.

Tested on: Hep3B xenograft
Assay type: in vivo

Compound: C=CC(=O)Nc1cc(N2CCN(CC)CC2)ccc1Nc1cc(N(C)C(=O)Nc2c(Cl)c(OC)cc(OC)c2Cl)ncn1 [Example 108, N-(2-(6-(3-(2,6-Dichloro-3,5-dimethoxyphenyl)-1-methylureido)-pyrimidin-4-ylamino)-5-(4-ethylpiperazin-1-yl)-phenyl)-acrylamide]
- Comparative in vivo efficacy (25, 37.5 or 50 mg/kg i.p. twice daily): more efficacious than BGJ398 at tolerable dosage levels

Compound: CCN1CCN(c2ccc(Nc3cc(N(C)C(=O)Nc4c(Cl)c(OC)cc(OC)c4Cl)ncn3)cc2)CC1 [BGJ398]
- Tolerability (health of animals) (30 mg/kg orally twice daily): did not exhibit poor health
- Comparative in vivo efficacy (60 mg/kg orally twice daily): efficacy comparable to compound 108
- Tolerability (health of animals) (60 mg/kg orally twice daily): terminated on Day 11 due to poor health of animals
